Test results as given in patent publication US20230210902A1, “SARS-COV-2-SPECIFIC T CELLS” (priority 2020, published 2023).

Test system: CTLs from Cas9 control and NR3C1 KO groups
Assay: Annexin V apoptosis assay with dexamethasone
Format: cell-based, human
Settings: 200 µM, 72 hours
Experimental: Annexin V apoptosis assay was performed to evaluate the effect of dexamethasone on the viability of CTLs from Cas9 control and NR3C1 KO groups. CTLs from both groups were treated with 200 µM dexamethasone (Sigma) for 72 hours. Cells were then collected, washed with annexin V buffer, and stained with annexin V (V500; BD Biosciences) and live/dead viability dye (efluor 660; Invitrogen) in addition to CD3 APC Cy7 (Biolegend, Clone HIT3A), CD4 APC (E Biosciences, Clone SK3), and CD8 PerCP Cy5.5 (Biolegend, Clone SK1). The proportion of apoptotic (positive for annexin V) and dead CTLs (positive for live/dead stain) was determined by flow cytometry.

Compound: C[C@@H]1C[C@H]2[C@@H]3CCC4=CC(=O)C=C[C@]4(C)[C@@]3(F)[C@@H](O)C[C@]2(C)[C@@]1(O)C(=O)CO [Dex, dexamethasone]
- viability of control Cas9 COVID-19 CTLs: absence of viable cells
